# Results as given in patent publication US6903086B2, “Alkoxycarbonylamino benzoic acid or alkoxycarbonylamino tetrazolyl phenyl derivatives as IP antagonists” (SYNTEX (U.S.A.) LLC, priority 2001, dated 2005).
row,SMILES,melting point
1,"N#Cc1ccc(NC(=O)OCc2cc3cc(-c4ccccc4)ccc3o2)c(C(=O)O)c1 [compound 21, 5-cyano-2-(5-phenyl-benzofuran-2-ylmethoxycarbonylamino)-benzoic acid]",213.9 to 214.5 °C
2,"O=C(Nc1ccc(Cl)cc1C(=O)O)OCc1cc2cc(-c3ccc(F)cc3)ccc2o1 [compound 24, 5-chloro-2-[5-(4-fluoro-phenyl)-benzofuran-2-ylmethoxycarbonylamino]-benzoic acid]",216.7 to 217.3 °C
3,"O=C(Nc1cccc(Cl)c1C(=O)O)OCc1cc2cc(-c3cnccn3)ccc2o1 [compound 39, 2-chloro-6-(5-pyrazin-2-yl-benzofuran-2-ylmethoxycarbonylamino)-benzoic acid]",212 to 214.1 °C
4,"O=C(Nc1cccc(Cl)c1C(=O)O)OCc1cc2cc(-c3ccccn3)ccc2o1 [compound 38, 2-chloro-6-(5-pyridin-2-yl-benzofuran-2-ylmethoxycarbonylamino)-benzoic acid]",134.8 to 144.1 °C
5,"O=C(Nc1c(Cl)cc(Cl)cc1C(=O)O)OCc1cc2cc(-c3ccc(F)cc3)ccc2o1 [compound 22, 3,5-dichloro-2-[5-(4-fluoro-phenyl)-benzofuran-2-ylmethoxycarbonylamino]-benzoic acid]",177.7 to 178.5 °C
6,"O=C(Nc1cccc(Cl)c1C(=O)O)OCc1cc2cc(-c3ccc(F)cc3)ccc2o1 [compound 25, 2-chloro-6-[5-(4-fluoro-phenyl)-benzofuran-2-ylmethoxycarbonylamino]-benzoic acid]",216.7 to 217.3 °C
7,"CC(C)Oc1ccc(NC(=O)OCc2cc3cc(-c4ccc(F)cc4)ccc3o2)c(C(=O)O)c1 [compound 301, 2-[5-(4-fluoro-phenyl)-benzofuran-2-ylmethoxycarbonylamino]-5-isopropoxy-benzoic acid]",195 to 196.5 °C
8,"O=C(Nc1ccc(F)cc1C(=O)O)OCc1cc2cc(-c3ccc(F)cc3)ccc2o1 [compound 23, 5-fluoro-2-[5-(4-fluoro-phenyl)-benzofuran-2-ylmethoxycarbonylamino]-benzoic acid]",210 to 211.9 °C
9,"O=C(Nc1cccc(Br)c1C(=O)O)OCc1cc2cc(-c3ccc(F)cc3)ccc2o1 [compound 42, 2-bromo-6-[5-(4-fluoro-phenyl)-benzofuran-2-ylmethoxycarbonylamino]-benzoic acid]",170.6 to 172 °C
10,"N#Cc1cccc(NC(=O)OCc2cc3cc(-c4ccc(F)cc4)ccc3o2)c1C(=O)O [compound 33, 2-cyano-6-[5-(4-fluoro-phenyl)-benzofuran-2-ylmethoxycarbonylamino]-benzoic acid]",150 °C (dec.)
11,"O=C(Nc1cc(C(=O)O)cc(-c2ccccc2)c1)OCc1cc2cc(-c3ccccc3)ccc2o1 [compound 401, 5-(5-phenyl-benzofuran-2-ylmethoxycarbonylamino)-biphenyl-3-carboxylic acid]",235.7 to 238.9 °C
12,"O=C(Nc1ccc(-c2ccccc2)cc1-c1nnn[nH]1)OCc1cc2cc(-c3ccc(F)cc3)ccc2o1 [compound 509, [3-(1H-tetrazol-5-yl)-biphenyl-4-yl]-carbamic acid 5-(4-fluoro-phenyl)-benzofuran-2-ylmethyl ester]",192 to 230 °C
13,"O=C(Nc1cccc(Cl)c1C(=O)O)OCc1cc2cc(-c3ccnnc3)ccc2o1 [compound 40, 2-chloro-6-(5-pyridazin-4-yl-benzofuran-2-ylmethoxycarbonylamino)-benzoic acid]",179 to 182.2 °C
14,"O=C(Nc1ccccc1-c1nnn[nH]1)OCc1cc2cc(-c3ccc(F)cc3)ccc2o1 [compound 503, [2-(1H-tetrazol-5-yl)-phenyl]-carbamic acid 5-(4-fluoro-phenyl)-benzofuran-2-ylmethyl ester]",155 to 158 °C
15,O=C(Nc1ccc(-c2ccccc2)cc1-c1nnn[nH]1)OCc1cc2cc(-c3ccccc3)ccc2o1 [compound 501],180 to 183 °C
16,"Cc1ccc(NC(=O)OCCOc2ccc(-c3ccccc3)cc2)c(C(=O)O)c1 [compound 802, 2-[2-(biphenyl-4-yloxy)-ethoxycarbonylamino]-5-methyl-benzoic acid]",175.5 to 177.8 °C
17,"O=C(Nc1cccc(Cl)c1C(=O)O)OCc1cc2cc(-c3cccnc3)ccc2o1 [compound 36, 2-chloro-6-(5-pyridin-3-yl-benzofuran-2-ylmethoxycarbonylamino)-benzoic acid]",172 to 174 °C
18,"Cc1cccc(NC(=O)OCc2cc3cc(-c4ccc(F)cc4)ccc3o2)c1C(=O)O [compound 27, 2-[5-(4-fluoro-phenyl)-benzofuran-2-ylmethoxycarbonylamino]-6-methyl-benzoic acid]",176.1 to 178.8 °C
19,"COc1cccc(NC(=O)OCc2cc3cc(-c4ccc(F)cc4)ccc3o2)c1C(=O)O [compound 29, 2-[5-(4-fluoro-phenyl)-benzofuran-2-ylmethoxycarbonylamino]-6-methoxy-benzoic acid]",160.5 to 164.3 °C

row,SMILES,melting point
1,"O=C(Nc1ccccc1-c1nnn[nH]1)OCc1cc2cc(-c3ccccc3)ccc2o1 [compound 508, [2-(1H-tetrazol-5-yl)-phenyl]-carbamic acid 5-phenyl-benzofuran-2-ylmethyl ester]",213 to 216.5 °C
2,"O=C(Nc1ccc(-c2ccsc2)cc1C(=O)O)OCc1cc2cc(-c3ccccc3)ccc2o1 [compound 13, 2-(5-phenyl-benzofuran-2-ylmethoxycarbonylamino)-5-thiophen-3-yl-benzoic acid]",229.5 to 230 °C
3,"Cc1ccc(NC(=O)OCc2cc3cc(-c4ccsc4)ccc3o2)c(C(=O)O)c1 [compound 31, 5-methyl-2-(5-thiophen-3-yl-benzofuran-2-ylmethoxycarbonylamino)-benzoic acid]",213.2 to 215.1 °C
4,"O=C(Nc1ccc(Br)cc1C(=O)O)OCc1cc2cc(-c3ccccc3)ccc2o1 [compound 19, 5-bromo-2-(5-phenyl-benzofuran-2-ylmethoxycarbonylamino)-benzoic acid]",221.2 to 222 °C
5,"Cc1ccc(NC(=O)OCc2cc3cc(-c4cccnc4)ccc3o2)c(C(=O)O)c1 [compound 35, 5-methyl-2-(5-pyridin-3-yl-benzofuran-2-ylmethoxycarbonylamino)-benzoic acid]",200.1 to 200.4 °C
6,"Cc1ccc(NC(=O)OCc2cc3cc(-c4ccc(F)cc4)ccc3o2)c(C(=O)O)c1 [compound 28, 2-[5-(4-fluoro-phenyl)-benzofuran-2-ylmethoxycarbonylamino]-5-methyl-benzoic acid]",190.8 to 191.9 °C
7,"O=C(Nc1ccc(-c2ccccc2)cc1-c1nnn[nH]1)OCc1cc2cc(-c3cc(Cl)cc(Cl)c3)ccc2o1 [compound 502, [3-(1H-tetrazol-5-yl)-biphenyl-4-yl]-carbamic acid 5-(3,5-dichloro-phenyl)-benzofuran-2-ylmethyl ester]",127.5 to 134 °C
8,"O=C(Nc1cccc([N+](=O)[O-])c1C(=O)O)OCc1cc2cc(-c3ccc(F)cc3)ccc2o1 [compound 30, 2-[5-(4-fluoro-phenyl)-benzofuran-2-ylmethoxycarbonylamino]-6-nitro-benzoic acid]",191.5 to 191.9 °C
9,"O=C(Nc1ccc(-c2ccccc2)cc1C(=O)O)OCc1ccc(-c2ccccc2)cc1 [compound 601, 4-(biphenyl-4-ylmethoxycarbonylamino)-biphenyl-3-carboxylic acid]",234.5 to 235.6 °C
10,"O=C(Nc1ccc(-c2ccc(F)cc2)cc1-c1nnn[nH]1)OCc1cc2cc(-c3ccc(F)cc3)ccc2o1 [compound 505, [4′-fluoro-3-(1H-tetrazol-5-yl)-biphenyl-4-yl]-carbamic acid 5-(4-fluoro-phenyl)-benzofuran-2-ylmethyl ester]",209 to 211 °C
11,"O=C(Nc1ccc(F)cc1-c1nnn[nH]1)OCc1cc2cc(-c3ccc(F)cc3)ccc2o1 [compound 506, [4-fluoro-2-(1H-tetrazol-5-yl)-phenyl]-carbamic acid 5-(4-fluoro-phenyl)-benzofuran-2-ylmethyl ester]",121 to 125.2 °C
12,"O=C(Nc1ccc(-c2ccccc2)cc1C(=O)O)OCc1cc2cc(-c3ccccc3)ccc2o1 [compound 10, 4-(5-phenyl-benzofuran-2-ylmethoxycarbonylamino)-biphenyl-3-carboxylic acid]",225.9 to 226.2 °C
13,"CS(=O)(=O)c1ccc(NC(=O)OCc2cc3cc(-c4ccccc4)ccc3o2)c(C(=O)O)c1 [compound 20, 5-methanesulfonyl-2-(5-phenyl-benzofuran-2-ylmethoxycarbonylamino)-benzoic acid]",234 to 235 °C
14,"Cc1cc(Br)ccc1NC(=O)OCc1cc2cc(-c3cccnc3)ccc2o1 [compound 41, (4-bromo-2-methyl-phenyl)-carbamic acid 5-pyridin-3-yl-benzofuran-2-ylmethyl ester]",213.9 to 214.5 °C
15,"O=C(Nc1cc(-c2ccccc2)ccc1C(=O)O)OCc1cc2cc(-c3ccccc3)ccc2o1 [compound 11, 3-(5-phenyl-benzofuran-2-ylmethoxycarbonylamino)-biphenyl-4-carboxylic acid]",229.5 to 230 °C
16,"O=C(Nc1ccc(-c2ccc(F)cc2)cc1C(=O)O)OCc1cc2cc(-c3ccc(F)cc3)ccc2o1 [compound 14, 4′-fluoro-4-[5-(4-fluoro-phenyl)-benzofuran-2-ylmethoxycarbonylamino]-biphenyl-3-carboxylic acid]",235.1 to 235.7 °C
17,"O=C(Nc1cccc(Cl)c1C(=O)O)OCCOc1ccc(-c2ccccc2)cc1 [compound 801, 2-[2-(biphenyl-4-yloxy)-ethoxycarbonylamino]-6-chloro-benzoic acid]",157.5 to 158.9 °C
18,"O=C(O)Cc1ccccc1NC(=O)OCc1cc2cc(-c3ccccc3)ccc2o1 [compound 42, [2-(5-phenyl-benzofuran-2-ylmethoxycarbonylamino)-phenyl]-acetic acid]",169.5 to 170.9 °C
19,"O=C(Nc1ccc(Br)cc1-c1nnn[nH]1)OCc1cc2cc(-c3ccc(F)cc3)ccc2o1 [compound 504, [4-bromo-2-(1H-tetrazol-5-yl)-phenyl]-carbamic acid 5-(4-fluoro-phenyl)-benzofuran-2-ylmethyl ester]",121 to 138 °C
